Assay results as given in patent publication US8637455B2, “Compositions and methods for delivery of glycopeptide antibiotics to medical device surfaces” (Affinergy, LLC, priority 2007, dated 2014).
*1 amine or outer side, *2 acyl side, *3 side chain or, on linkers, in order; H or OH if unused. Bridges are numbered along the chain shown (N, C = ends). Where no end group is shown, it is not given here. [ ]: non-standard residue; d: D form. The star is where a group is joined. (miniPEG)2 = linker of two mini-PEG units, (HN—CH2—CH2—O—CH2—CH2—O—CH2—C═O)2, O=C(COCCOCCN[*:1])NCCOCCOCC(=O)[*:2]; Myristoyl = CCCCCCCCCCCCCC(=O)*; Aun = NCCCCCCCCCCC(=O)O; AEEA = NCCOCCOCC(=O)O; Ahx = NCCCCCC(=O)O

Legend:
[1] = Binding of alkaline-phosphatase linked peptides to immobilized biotinylated vancomycin; conditions: absorbance at 405 nm
Description: From the peptide amino acid sequence […] (SEQ ID NO: 1) additional peptides were designed and expressed in the bacterial expression system described herein to further evaluate structure-function relationships. A truncated peptide comprising the amino acid sequence of SEQ ID NO:9 (STCLIDMYGVCH) was expressed and compared to a peptide comprising SEQ ID NO:1 for binding affinity for glycopeptide antibiotic. Also produced were a dimer of this truncated peptide (SEQ ID NO:10; […]), a D to A substitution (SEQ ID NO:11; STCLIAMYGVCH), a D to E substitution (SEQ ID NO:12; STCLIEMYGVCH), and a G to S substitution (SEQ ID NO:13; STCLIDMYSVCH). Relative binding strengths of these peptides and of other representative peptides to glycopeptide antibiotic were determined by EC50 values for binding to vancomycin or other glycopeptide antibiotic.
A typical binding assay for glycopeptide antibiotic was performed according to the following procedure. The concentrations of the alkaline-phosphatase linked variant peptides were normalized to equal levels based on the alkaline-phosphatase activity as determined in a kinetic assay with the alkaline-phosphatase specific chromogenic substrate p-nitrophenyl phosphate (p-NPP). A streptavidin coated microtiter plate was coated with biotinylated vancomycin. Serial dilutions of normalized alkaline-phosphatase linked peptides were allowed to bind to the immobilized vancomycin and detected by addition of the alkaline-phosphatase specific chromogenic substrate p-NPP. Relative affinity for peptide binding to the immobilized vancomycin was determined by measuring the absorbance at 405 nm of the colored product of the alkaline phosphatase reaction. […] EC50 values for the synthetic peptides binding to vancomycin were determined as described in Example 1 and are shown in Table 3. Preferred are peptides that bind to glycopeptide antibiotic with binding affinity of EC50 of less than or equal to about 1 μM, and more preferably, in the nanomolar range (e.g., <0.1 μM).

[2] = system: Staphylococcus aureus strain MZ100; assay: In vitro infection assay on titanium beads, colony counts; type: cell-based; conditions: peptide 5 μM + vancomycin 100 μM
Description: To illustrate the antibacterial activity of the peptide compositions, an in vitro infection assay was performed. Briefly, a surface material was contacted with one of the peptide compositions such that the peptide binds to the surface material. The peptide composition can have glycopeptide antibiotic already bound thereto at the time of contacting the peptide with the surface material, or the glycopeptide antibiotic can be contacted with the peptide in a step subsequent to binding the peptide composition to the surface material. The surface material was washed to remove unbound glycopeptide antibiotic, and then contacted with bacterial cells (added from a culture in log phase growth) and incubated to promote bacterial growth. The surface material was washed, and any bacterial cells colonizing the surface material removed and plated to assess bacterial growth.
In one example, Staphylococcus aureus strain MZ100 was used as the representative bacterial cells. First, as a representative surface material, titanium beads were sterilized in acetone in a sonication bath, and then air dried in a sterile hood. The beads were individually placed in sterilized microfuge tubes (one bead per tube). […] The next day, the plates were examined for bacterial growth, and the number of bacterial colonies was quantified per plate.

[3] = Vancomycin loading on titanium surface by peptide compositions (HPLC assay); type: binding; conditions: peptide at 10 μM; vancomycin 200 μM; titanium beads; 30 minutes, 4 washes
Description: In one experiment, titanium beads were placed into wells of a 96 well plate. To each well was added a range of concentrations (1-50 μM) of peptide composition comprising at least one surface-binding peptide coupled to at least one glycopeptide antibiotic binding peptide and vancomycin at 200 μM. The appropriate negative controls were also included. The plate was incubated for 30 minutes, and then the wells and beads were washed 4 times with buffer. After washing, 10 mM HCl was added to each well to elute remaining vancomycin from the metal bead. Bound vancomycin was measured by HPLC assay at detection wavelength 214 nm. […] In addition, binding assays performed using stainless steel rather than titanium beads as a representative surface material yielded similar results.

[4] = system: S. aureus; assay: Bacterial growth with loaded titanium beads, optical density at 600 nm; type: cell-based; conditions: peptide 10 μM + vancomycin 200 μM, 37° C. for 18 hours
Description: In another experiment, antimicrobial activity of the peptide compositions was measured as follows. Titanium beads were placed into wells of a 96 well plate. To each well was added a 10 μM of peptide composition comprising at least one surface-binding peptide coupled to at least one glycopeptide antibiotic binding peptide and vancomycin at 200 μM. The appropriate negative controls were also included. The plate was incubated for 1 hour at 20° C., and then the wells and beads were washed 4 times with buffer. After washing, the beads were transferred to the well of a plate containing S. aureus in log phase growth and incubated at 37° C. for 18 hours. Bacterial growth was assessed by reading optical density at 600 nm.

[5] = system: S. aureus MZ100; assay: In vitro infection model on titanium pins, colony counts; type: cell-based; conditions: composition 5 μM + vancomycin 100 μM, two hours with S. aureus MZ100
Description: Acetone-sterilized titanium pins (1 mm diameter, 12 mm long) were first washed in PBS. These pins were then incubated in a solution (PBS) containing the respective composition (5 μM)+vancomycin (100 μM) for 15 minutes at room temperature, with intermittent inversion for coating. Each pin was then washed extensively in PBS and placed in 30 μL of S. aureus MZ100 cultured at 10^6 colony forming units (cfu) per mL, according to methods above. The coated pins were then inoculated in 30 mm lengths of 1.5 mm diameter silicone tubing, with closed ends. After incubation for two hours with shaking, the pin was placed in a new tube containing 1 mL PBS. After inverting several times, PBS was aspirated, and replaced with a fresh 1 mL of PBS. The pins were then sonicated at 20 kHz for four cycles of 15 seconds each. Supernatants (100 μL) and dilutions were plated on trypticase soy agar (TSA) plates, incubated for 24 hours at 37° C., and colonies were counted. An assay control included the same steps of the infection model, except that the pin is uncoated pin (i.e., without composition according to the presently disclosed subject matter bound thereto) (“Control”). As representative examples, compositions comprising the amino acid sequences of SEQ ID NOs: 125 and 126 were tested for antimicrobial activity using the in vitro infection model (see, Table 7, “A” & “B”, respectively).

[6] = Binding assay of peptide for gentamycin; conditions: gentamycin (an aminoglycoside antibiotic); similar assay format as for vancomycin
Description: Using a similar binding assay format as described herein for vancomycin, the ability of a peptide comprising the amino acid sequence of SEQ ID NO: 1 to bind gentamycin (an aminoglycoside antibiotic) was determined.

[7] = system: binding between vancomycin and a peptide comprising the amino acid sequence of SEQ ID NO:1; assay: Inhibition by Lys-D-Ala-D-Ala of specific binding between vancomycin and peptide SEQ ID NO:1
Description: As an example, illustrated is the inhibition by Lys-D-Ala-D-Ala of specific binding between vancomycin and a peptide comprising the amino acid sequence of SEQ ID NO:1. To the wells of a 96 well plate coated with streptavidin was added 100 μl of a 0.2 μM solution of biotinylated peptide in buffer-T. After incubation, the wells were blocked by adding 200 μl of a 0.5 mM solution of biotin in buffer-T. The plates were then washed three times with buffer-T. Serial dilutions of Lys-D-Ala-D-Ala were prepared, and added individually to the wells such that Lys-D-Ala-D-Ala ranged in a final concentration of from about 1 μM to about 200 μM (in a volume of 35 μl). Also added to each well was 35 μl of biotinylated vancomycin (20 nM final concentration), and the plate was incubated at 30 minutes for room temperature. The wells were then washed three times with buffer-T, followed by the addition of 100 μl of streptavidin-alkaline phosphatase conjugate (1 mg/ml diluted 1:500 in buffer-T). Following a 30 minute incubation, the wells were washed five times with buffer-T. Added to each well was 100 μl of pNPP, followed by colorimetric detection after 12 minutes at an absorbance of 405 nm.

11 (STCLIAMYGVCH) [compound 11]
glycopeptide antibiotic binding [1]: no detectable glycopeptide antibiotic binding

12 (STCLIEMYGVCH) [compound 12]
glycopeptide antibiotic binding [1]: no detectable glycopeptide antibiotic binding

13 (STCLIDMYSVCH) [compound 13]
glycopeptide antibiotic binding [1]: no detectable glycopeptide antibiotic binding

119 (NHTISKNHKKKNKNSNKTR) [compound 119]
bacterial growth on the plates [2]: completely inhibited

130 (SSCLIDIYGVCHNFDAY[AEEA][AEEA]HKKNNPKKKNKTRGSSK; disulfide 3-11 (inferred)) [compound 130]
Picomoles vancomycin/cm^2 [3]: 83 Picomoles vancomycin/cm^2 | inhibition of bacterial growth [4]: complete inhibition

131 (SSCLIDIYGVCHNFDAY[AEEA][AEEA]SSHRTNHKKNNPKKKNKTRGSSGK; disulfide 3-11 (inferred)) [compound 131]
Picomoles vancomycin/cm^2 [3]: 76 Picomoles vancomycin/cm^2 | inhibition of bacterial growth [4]: complete inhibition

AUD-AUD-AUD-SSCLIDIYGVCHNFDAY-(miniPEG)2-HKKNNPKKKNKTRGSSK ([Aun][Aun][Aun]SSCLIDIYGVCHNFDAY[(miniPEG)2]HKKNNPKKKNKTRGSSK; disulfide 6-14 (inferred)) [SEQ ID NO: 126]
# of bacterial colonies (CFU) [5]: <10 CFU

CLIDMYGVCHNFDGAYDS [compound 1]
binding affinity for gentamycin [6]: lacked significant binding affinity

Lys-D-Ala-D-Ala
inhibition of binding between vancomycin and peptide ([7]; Lys-D-Ala-D-Ala between 100 μM to 200 μM): ~100% | IC50 ([7]; biotinylated vancomycin 20 nM, immobilized peptide SEQ ID NO:1, read-out: concentration of Lys-D-Ala-D-Ala needed to inhibit about 50% of the binding between vancomycin and peptide): ~10 µM

Myr-Ahx-SSCLIDIYGVCHNFDAY-(miniPEG)2-HKKNNPKKKNKTRGSSK ({Myristoyl-Ahx}-SSCLIDIYGVCHNFDAY[(miniPEG)2]HKKNNPKKKNKTRGSSK; disulfide 3-11 (inferred)) [SEQ ID NO: 125]
# of bacterial colonies (CFU) [5]: 100 CFU

NHTISKNHKKKNKNSNKTR [SEQ ID NO: 119]
# of bacterial colonies ([2]; 2 hour incubation with MZ100): 0

STCLIDMYGVCH [compound 9]
glycopeptide antibiotic binding [1]: displayed glycopeptide antibiotic binding

STCLIDMYGVCHSSCLIDMYGVCH [compound 10]
glycopeptide antibiotic binding [1]: displayed glycopeptide antibiotic binding
